Assays:
KRas^G12D = biological target: T1, KRas^G12D (Homo sapiens, UniProt P01116, G12D); test: KRas binding assay (TR-FRET tracer displacement), KRas G12D
T1 construct: Biotinylated KRas (corresponding to amino acids 1-169, produced at Accelegan Inc.); biotin (biotinylated); purchased Accelegan Inc

KRas^G12R = biological target: T2, KRas^G12R (Homo sapiens, UniProt P01116, G12R); test: KRas binding assay (TR-FRET tracer displacement), KRas G12R
T2 construct: Biotinylated KRas (corresponding to amino acids 1-169, produced at Accelegan Inc.); biotin (biotinylated); purchased Accelegan Inc

KRas^G12V = biological target: T3, KRas^G12V (Homo sapiens, UniProt P01116, G12V); test: KRas binding assay (TR-FRET tracer displacement), KRas G12V
T3 construct: Biotinylated KRas (corresponding to amino acids 1-169, produced at Accelegan Inc.); biotin (biotinylated); purchased Accelegan Inc

[1] = system: KRas-mediated phosphorylation of ERK in AsPC-1 cells; test: Inhibition of KRas-mediated phosphorylation of ERK (Cisbio HTRF pERK), AsPC-1 cells; format: cell-based; details: HTRF pERK
Description: (§1) Inhibition of KRas Phosphorylation of ERK (HTRF) by Exemplary Compounds of Formula (I) Cisbio HTRF Advanced PERK Assay Catalog #64[…] […] Add 10 mL of media to stop trypsinizing. Pipette the cells into a conical bottom 50 mL centrifuge tube and centrifuge 5 min×1000 rpm. […] Re-suspend the cell pellet in media, take a cell count, and then adjust the cell density using fresh media. […] Seed 6,000 cells into cell culture plate with 50 μL media. […] Use Tecan to complete the compound addition. Compounds start from 10 uM top, 3-fold dilution, and 10 doses. The final DMSO concentration is 0.8%. Dispensed 0.2 uM Trametinib as Min control. […] Incubate cell plate for 3 hrs in the incubator. […] Dilute 1 volume of 4× lysis buffer with 3 volumes of deionized water. […] Keep lysis buffer on the ice. […] At the end of the compound treatment, flick-off the media. […] Add 35 μL of lysis buffer per well using a Multidrop Combi. Then place on a plate agitator shaking at 300 rpm at 4° C. for 40 mins. […] Make up the HTRF antibody buffer. For each assay plate, mix 50 μL of d2-conjugate antibody with 950 μL of detection buffer. Similarly, mix 50 μL of Cryptate antibody with 950 μL of detection buffer. Then mix the two diluted antibodies together. […] Dispense 3.4 μL the antibody buffer to wells of an empty assay plate. Seal the plate and centrifuge plate 30 sec×1000 rpm. […] At the end of the 4° C. lysis, centrifuge the lysate plates 3 mins×1500 rpm. […] Use the Bravo to transfer 13.6 μL of lysate from cell culture plate to assay plate. Then incubate assay plate for 2 hrs at room temperature. 8. At the end of incubation, read plate on the Envision after centrifuging plate 30 sec×1000 rpm.

[2] = system: KRas-mediated phosphorylation of ERK in H727 cells; test: Inhibition of KRas-mediated phosphorylation of ERK (Cisbio HTRF pERK), H727 cells; format: cell-based; details: HTRF pERK
Description: as §1

[3] = Homo sapiens, ASPC1, AsPC-1 cells
[4] = Homo sapiens, NCI-H727, H727 cells

T1 sequence (P01116 1-169 isoform P01116-2 G12D): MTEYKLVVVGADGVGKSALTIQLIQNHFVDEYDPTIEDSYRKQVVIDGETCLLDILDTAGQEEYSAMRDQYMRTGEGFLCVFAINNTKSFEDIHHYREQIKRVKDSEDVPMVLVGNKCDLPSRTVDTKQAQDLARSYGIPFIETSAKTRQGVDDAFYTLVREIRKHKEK
T3 sequence (P01116 1-169 isoform P01116-2 G12V): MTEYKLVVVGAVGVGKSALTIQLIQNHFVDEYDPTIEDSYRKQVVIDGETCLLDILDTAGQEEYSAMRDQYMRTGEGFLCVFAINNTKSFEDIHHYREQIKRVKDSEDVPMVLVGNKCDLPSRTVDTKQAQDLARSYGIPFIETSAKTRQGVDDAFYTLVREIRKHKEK
T2 sequence (P01116 1-169 isoform P01116-2 G12R): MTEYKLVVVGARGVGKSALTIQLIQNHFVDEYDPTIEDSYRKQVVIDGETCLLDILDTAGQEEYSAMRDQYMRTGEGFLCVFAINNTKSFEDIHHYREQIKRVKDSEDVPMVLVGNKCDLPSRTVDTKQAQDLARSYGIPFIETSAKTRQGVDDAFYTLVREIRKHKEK

Row | IC50 (KRas^G12D) [nM] | IC50 (KRas^G12R) [nM] | IC50 (KRas^G12V) [nM] | IC50 [1, 3] [nM] | IC50 [2, 4] [nM] | IC50 ([1]; AsPC-1 cells) [nM] | IC50 ([2]; H727 cells) [nM] | Compound
1 | 300 | 59 | 62 | > 10000 | > 10000 | – | – | CCc1c(F)ccc2cc(O)cc(-c3ncc4c(N5C[C@H]6C[C@@H](C5)[C@@H](O)[C@@H]6O)nc(OC[C@@]56CCCN5C[C@H](F)C6)nc4c3F)c12 (single isomer, unassigned) [Example 571]
2 | 9 | 4 | 4 | – | – | 1550 | 763 | CCc1c(F)ccc2cc(O)cc(-c3ncc4c(N5CCCC(C6CCNC6=O)C5)nc(OC[C@@]56CCCN5C[C@H](F)C6)nc4c3F)c12 (single isomer, unassigned) [Example 617]
3 | 644 | 195 | 168 | – | – | > 10000 | > 10000 | CCc1c(F)ccc2cc(O)cc(-c3ncc4c(N5CCCC(C6CCNC6=O)C5)nc(OC[C@@]56CCCN5C[C@H](F)C6)nc4c3F)c12 (single isomer, unassigned) [Example 618]
4 | 33 | 4 | 21 | – | – | 3620 | 1810 | CCc1c(F)ccc2cc(O)cc(-c3ncc4c(N5CCCC(C6CCNC6=O)C5)nc(OC[C@@]56CCCN5C[C@H](F)C6)nc4c3F)c12 (single isomer, unassigned) [Example 619]
5 | > 100000 | 67700 | > 100000 | > 10000 | > 10000 | – | – | O=C1CC2CN(c3nc(OCC45CCCN4CCC5)nc4c(F)c(-c5cccc6cccc(F)c56)ncc34)CCC2C(=O)N1 (stereo not shown) [Example 526, 6-(8-fluoro-7-(8-fluoronaphthalen-1-yl)-2-((hexahydro-1H-pyrrolizin-7a-yl)methoxy)pyrido[4,3-d]pyrimidin-4-yl)hexahydro-2,6-naphthyridine-1,3(2H,4H)-dione]
6 | 116 | 193 | 150 | > 10000 | > 10000 | – | – | CCc1c(F)ccc2cc(O)cc(-c3ncc4c(N5CCC[C@@](C)(O)C5)nc(N5CC(N)C5)nc4c3F)c12 [Example 527, (R)-1-(2-(3-aminoazetidin-1-yl)-7-(8-ethyl-7-fluoro-3-hydroxynaphthalen-1-yl)-8-fluoropyrido[4,3-d]pyrimidin-4-yl)-3-methylpiperidin-3-ol]
7 | 8 | 3 | 3 | > 10000 | > 10000 | – | – | CCc1c(F)ccc2cc(O)cc(-c3ncc4c(N5CCCC6(C5)NC(=O)NC6=O)nc(N5CC(N)C5)nc4c3F)c12 (stereo not shown) [Example 528, 7-(2-(3-aminoazetidin-1-yl)-7-(8-ethyl-7-fluoro-3-hydroxynaphthalen-1-yl)-8-fluoropyrido[4,3-d]pyrimidin-4-yl)-1,3,7-triazaspiro[4.5]decane-2,4-dione]
8 | 14 | 36 | 21 | > 10000 | > 10000 | – | – | CCc1c(F)ccc2cc(O)cc(-c3ncc4c(N5CCCn6nc(C(=O)N(C)C)cc6C5)nc(N5CC(N)C5)nc4c3F)c12 [Example 529, 5-(2-(3-aminoazetidin-1-yl)-7-(8-ethyl-7-fluoro-3-hydroxynaphthalen-1-yl)-8-fluoropyrido[4,3-d]pyrimidin-4-yl)-N,N-dimethyl-5,6,7,8-tetrahydro-4H-pyrazolo[1,5-a][1,4]diazepine-2-carboxamide]
9 | 5 | < 2 | < 2 | > 10000 | > 10000 | – | – | CCc1c(F)ccc2cc(O)cc(-c3ncc4c(N5CCCC6(C5)NC(=O)NC6=O)nc(N5CC(C)(N)C5)nc4c3F)c12 (stereo not shown) [Example 531, 7-(2-(3-amino-3-methylazetidin-1-yl)-7-(8-ethyl-7-fluoro-3-hydroxynaphthalen-1-yl)-8-fluoropyrido[4,3-d]pyrimidin-4-yl)-1,3,7-triazaspiro[4.5]decane-2,4-dione]
10 | 9 | 24 | 15 | > 10000 | > 10000 | – | – | CCc1c(F)ccc2cc(O)cc(-c3ncc4c(N5CCCn6nc(C(=O)N(C)C)cc6C5)nc(N5CC(C)(N)C5)nc4c3F)c12 [Example 532, 5-(2-(3-amino-3-methylazetidin-1-yl)-7-(8-ethyl-7-fluoro-3-hydroxynaphthalen-1-yl)-8-fluoropyrido[4,3-d]pyrimidin-4-yl)-N,N-dimethyl-5,6,7,8-tetrahydro-4H-pyrazolo[1,5-a][1,4]diazepine-2-carboxamide]
11 | 60 | 6 | 9 | > 10000 | 2330 | – | – | CCc1c(F)ccc2cc(O)cc(-c3ncc4c(NC5CCONC5)nc(OC[C@@]56CCCN5C[C@H](F)C6)nc4c3F)c12 (stereo partly drawn) [Example 542, 4-(4-((1,2-oxazinan-4-yl)amino)-8-fluoro-2-(((2R,7aS)-2-fluorohexahydro-1H-pyrrolizin-7a-yl)methoxy)pyrido[4,3-d]pyrimidin-7-yl)-5-ethyl-6-fluoronaphthalen-2-ol]
12 | 72 | 37 | 35 | 1830 | 1010 | – | – | CCc1c(F)ccc2cc(O)cc(-c3ncc4c(N5C[C@H]6CC[C@@]6(O)C5)nc(OC[C@@]56CCCN5C[C@H](F)C6)nc4c3F)c12 [Example 546, (1S,5R)-3-(7-(8-ethyl-7-fluoro-3-hydroxynaphthalen-1-yl)-8-fluoro-2-(((2R,7aS)-2-fluorohexahydro-1H-pyrrolizin-7a-yl)methoxy)pyrido[4,3-d]pyrimidin-4-yl)-3-azabicyclo[3.2.0]heptan-1-ol]
13 | 810 | 71 | 244 | 9330 | 5300 | – | – | CCc1c(F)ccc2cc(O)cc(-c3ncc4c(N5CCC6CCCC5C6)nc(OC[C@@]56CCCN5C[C@H](F)C6)nc4c3F)c12 (stereo partly drawn) [Example 552, 4-(4-(2-azabicyclo[3.3.1]nonan-2-yl)-8-fluoro-2-(((2R,7aS)-2-fluorotetrahydro-1H-pyrrolizin-7a(5H)-yl)methoxy)pyrido[4,3-d]pyrimidin-7-yl)-5-ethyl-6-fluoronaphthalen-2-ol]
14 | 10 | < 2 | 2 | > 10000 | 2510 | – | – | CCc1c(F)ccc2cc(O)cc(-c3ncc4c(NCC5CNC(=O)CO5)nc(OC[C@@]56CCCN5C[C@H](F)C6)nc4c3F)c12 (stereo partly drawn) [Example 556, 6-(((7-(8-ethyl-7-fluoro-3-hydroxynaphthalen-1-yl)-8-fluoro-2-(((2R,7aS)-2-fluorotetrahydro-1H-pyrrolizin-7a(5H)-yl)methoxy)pyrido[4,3-d]pyrimidin-4-yl)amino)methyl) morpholin-3-one]
15 | 640 | 31 | 16 | > 10000 | > 10000 | – | – | CCc1c(F)ccc2cc(O)cc(-c3ncc4c(N5CCC(n6cnnc6)C5)nc(OC[C@@]56CCCN5C[C@H](F)C6)nc4c3F)c12 (stereo partly drawn) [Example 564, 4-(4-(3-(4H-1,2,4-triazol-4-yl)pyrrolidin-1-yl)-8-fluoro-2-(((2R,7aS)-2-fluorotetrahydro-1H-pyrrolizin-7a(5H)-yl)methoxy)pyrido[4,3-d]pyrimidin-7-yl)-5-ethyl-6-fluoronaphthalen-2-ol]
16 | 682 | 1460 | 2430 | > 10000 | > 10000 | – | – | CCc1c(F)ccc2cc(O)cc(-c3ncc4c(N5CCN6C[C@@H](O)C[C@H]6C5)nc(OC[C@@]56CCCN5C[C@H](F)C6)nc4c3F)c12 [Example 567, (7S,8aS)-2-(7-(8-ethyl-7-fluoro-3-hydroxynaphthalen-1-yl)-8-fluoro-2-(((2R,7aS)-2-fluorohexahydro-1H-pyrrolizin-7a-yl)methoxy)pyrido[4,3-d]pyrimidin-4-yl) octahydropyrrolo[1,2-a]pyrazin-7-ol]

Row | Compound | IC50 (KRas^G12D) [nM] | IC50 (KRas^G12R) [nM] | IC50 (KRas^G12V) [nM] | IC50 [1, 3] [nM] | IC50 [2, 4] [nM] | IC50 ([1]; AsPC-1 cells) [nM] | IC50 ([2]; H727 cells) [nM]
17 | CCc1c(F)ccc2cc(O)cc(-c3ncc4c(N5CC6(C)CC(CO)(C5)C6)nc(OC[C@@]56CCCN5C[C@H](F)C6)nc4c3F)c12 [Example 565, 5-ethyl-6-fluoro-4-(8-fluoro-2-(((2R,7aS)-2-fluorohexahydro-1H-pyrrolizin-7a-yl)methoxy)-4-(1-(hydroxymethyl)-5-methyl-3-azabicyclo[3.1.1]heptan-3-yl)pyrido[4,3-d]pyrimidin-7-yl)naphthalen-2-ol] | 1160 | 1030 | 908 | > 10000 | > 10000 | – | –
